# Laboratory results as given in the supplement of paper PMC10307832.
# Assays:
# Experiment in all cases: relative viability (nuclei count vs DMSO), 5 days (fraction); higher = more cells survive
# [1] = system: NCI-H650
# Method in brief: (§1)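 The day after seeding in 1536-well plates, lung cancer cell lines were treated by pin tool with a single drug, or with a fixed anchor-drug dose together with five library-drug doses (not always all listed) in √10 steps. After 5 days, a combined fix-and-stain solution (final 0.05% Triton X-100, 1% formaldehyde, 1 ug/ml Hoechst) was added. Nuclei counted on 4× images gave relative viability as treated counts over vehicle counts, reported as the median of duplicate plates.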
# [2] = system: NCI-H1299
# Method in brief: as §1
# [3] = system: NCI-H1648
# Method in brief: as §1
# [4] = system: NCI-H520
# Method in brief: as §1
# [5] = system: NCI-H1651
# Method in brief: as §1
# [6] = system: IA-LM
# Method in brief: as §1
# [7] = system: NCI-H1703
# Method in brief: as §1
# [8] = system: EBC-1
# Method in brief: as §1
# [9] = system: NCI-H838
# Method in brief: as §1
# [10] = system: Calu-6
# Method in brief: as §1
# [11] = system: NCI-H1944
# Method in brief: as §1
# [12] = system: RERF-LC-KJ
# Method in brief: as §1
# [13] = system: A549
# Method in brief: as §1
smiles,measurement,setting,value
CCN(CC)CCCCNc1ncc2cc(-c3cc(OC)cc(OC)c3)c(NC(=O)NC(C)(C)C)nc2n1 + O=C(c1cc(Cc2n[nH]c(=O)c3ccccc23)ccc1F)N1CCN(C(=O)C2CC2)CC1 [Olaparib] (partner 8 µM),relative viability,[1]; first compound 0.01 µM,0.369
same,relative viability,[1]; first compound 0.03162 µM,0.408
same,relative viability,[1]; first compound 0.1 µM,0.41
same,relative viability,[1]; first compound 0.3162 µM,0.355
same,relative viability,[1]; first compound 1 µM,0.391
same,relative viability,[2]; first compound 0.01 µM,1.03
same,relative viability,[2]; first compound 0.03162 µM,0.991
same,relative viability,[2]; first compound 0.1 µM,1.01
same,relative viability,[2]; first compound 0.3162 µM,1.04
same,relative viability,[2]; first compound 1 µM,0.998
same,relative viability,[3]; first compound 0.01 µM,0.991
same,relative viability,[3]; first compound 0.03162 µM,0.767
same,relative viability,[3]; first compound 0.1 µM,0.781
same,relative viability,[3]; first compound 0.3162 µM,0.703
same,relative viability,[3]; first compound 1 µM,0.648
same,relative viability,[4]; first compound 0.01 µM,0.367
same,relative viability,[4]; first compound 0.03162 µM,0.377
same,relative viability,[4]; first compound 0.1 µM,0.318
same,relative viability,[4]; first compound 0.3162 µM,0.272
same,relative viability,[4]; first compound 1 µM,0.261
same,relative viability,[5]; first compound 0.01 µM,0.193
same,relative viability,[5]; first compound 0.03162 µM,0.192
same,relative viability,[5]; first compound 0.1 µM,0.175
same,relative viability,[5]; first compound 0.3162 µM,0.203
same,relative viability,[5]; first compound 1 µM,0.183
same,relative viability,[6]; first compound 0.01 µM,0.821
same,relative viability,[6]; first compound 0.03162 µM,0.88
same,relative viability,[6]; first compound 0.1 µM,0.946
same,relative viability,[6]; first compound 0.3162 µM,0.762
same,relative viability,[6]; first compound 1 µM,0.936
same,relative viability,[7]; first compound 0.01 µM,0.313
same,relative viability,[7]; first compound 0.03162 µM,0.421
same,relative viability,[7]; first compound 0.1 µM,0.52
same,relative viability,[7]; first compound 0.3162 µM,0.383
same,relative viability,[7]; first compound 1 µM,0.388
same,relative viability,[8]; first compound 0.01 µM,0.738
same,relative viability,[8]; first compound 0.03162 µM,0.684
same,relative viability,[8]; first compound 0.1 µM,0.779
same,relative viability,[8]; first compound 0.3162 µM,0.824
same,relative viability,[8]; first compound 1 µM,0.705
same,relative viability,[9]; first compound 0.01 µM,0.824
same,relative viability,[9]; first compound 0.03162 µM,0.835
same,relative viability,[9]; first compound 0.1 µM,0.743
same,relative viability,[9]; first compound 0.3162 µM,0.745
same,relative viability,[9]; first compound 1 µM,0.603
same,relative viability,[10]; first compound 0.03162 µM,0.583
same,relative viability,[10]; first compound 0.1 µM,0.627
same,relative viability,[10]; first compound 0.3162 µM,0.694
same,relative viability,[10]; first compound 1 µM,0.556
same,relative viability,[11]; first compound 0.01 µM,0.363
same,relative viability,[11]; first compound 0.03162 µM,0.415
same,relative viability,[11]; first compound 0.1 µM,0.474
same,relative viability,[11]; first compound 0.3162 µM,0.428
same,relative viability,[11]; first compound 1 µM,0.394
same,relative viability,[12]; first compound 0.01 µM,1.01
same,relative viability,[12]; first compound 0.03162 µM,0.92
same,relative viability,[12]; first compound 0.1 µM,1.12
same,relative viability,[12]; first compound 0.3162 µM,1.05
same,relative viability,[12]; first compound 1 µM,0.963
same,relative viability,[13]; first compound 0.01 µM,0.273
same,relative viability,[13]; first compound 0.03162 µM,0.367
same,relative viability,[13]; first compound 0.1 µM,0.318
same,relative viability,[13]; first compound 0.3162 µM,0.32
same,relative viability,[13]; first compound 1 µM,0.349
O=c1cc(-c2cccc3c2Sc2ccccc2S3)oc(N2CCOCC2)c1 + O=C(c1cc(Cc2n[nH]c(=O)c3ccccc23)ccc1F)N1CCN(C(=O)C2CC2)CC1 [Olaparib] (partner 8 µM),relative viability,[1]; first compound 0.08 µM,0.397
same,relative viability,[1]; first compound 0.253 µM,0.402
same,relative viability,[1]; first compound 0.8 µM,0.424
same,relative viability,[1]; first compound 2.53 µM,0.378
same,relative viability,[1]; first compound 8 µM,0.415
same,relative viability,[2]; first compound 0.08 µM,0.951
same,relative viability,[2]; first compound 0.253 µM,1.05
same,relative viability,[2]; first compound 0.8 µM,1.04
same,relative viability,[2]; first compound 2.53 µM,1.02
same,relative viability,[2]; first compound 8 µM,0.909
same,relative viability,[3]; first compound 0.253 µM,1.01
same,relative viability,[3]; first compound 0.8 µM,0.781
same,relative viability,[3]; first compound 8 µM,1.2
same,relative viability,[4]; first compound 0.08 µM,0.391
same,relative viability,[4]; first compound 0.253 µM,0.321
same,relative viability,[4]; first compound 0.8 µM,0.439
same,relative viability,[4]; first compound 2.53 µM,0.322
same,relative viability,[4]; first compound 8 µM,0.339
same,relative viability,[5]; first compound 0.08 µM,0.166
same,relative viability,[5]; first compound 0.253 µM,0.175
same,relative viability,[5]; first compound 0.8 µM,0.184
same,relative viability,[5]; first compound 2.53 µM,0.168
same,relative viability,[5]; first compound 8 µM,0.176
same,relative viability,[6]; first compound 0.08 µM,0.848
same,relative viability,[6]; first compound 0.253 µM,1.07
same,relative viability,[6]; first compound 0.8 µM,0.934
same,relative viability,[6]; first compound 2.53 µM,0.796
same,relative viability,[6]; first compound 8 µM,0.866
same,relative viability,[7]; first compound 0.08 µM,0.314
same,relative viability,[7]; first compound 0.253 µM,0.445
same,relative viability,[7]; first compound 0.8 µM,0.406
same,relative viability,[7]; first compound 2.53 µM,0.246
same,relative viability,[7]; first compound 8 µM,0.227
same,relative viability,[8]; first compound 0.08 µM,0.618
same,relative viability,[8]; first compound 0.253 µM,0.831
same,relative viability,[8]; first compound 0.8 µM,0.732
same,relative viability,[8]; first compound 2.53 µM,0.619
same,relative viability,[8]; first compound 8 µM,0.324
same,relative viability,[9]; first compound 0.08 µM,0.9
same,relative viability,[9]; first compound 0.253 µM,1.1
same,relative viability,[9]; first compound 0.8 µM,0.752
same,relative viability,[9]; first compound 2.53 µM,0.715
same,relative viability,[9]; first compound 8 µM,0.546
same,relative viability,[10]; first compound 0.08 µM,0.63
same,relative viability,[10]; first compound 0.253 µM,0.636
same,relative viability,[10]; first compound 0.8 µM,0.601
same,relative viability,[10]; first compound 2.53 µM,0.599
same,relative viability,[10]; first compound 8 µM,0.549
same,relative viability,[11]; first compound 0.08 µM,0.401
same,relative viability,[11]; first compound 0.253 µM,0.401
same,relative viability,[11]; first compound 0.8 µM,0.414
same,relative viability,[11]; first compound 2.53 µM,0.43
same,relative viability,[11]; first compound 8 µM,0.397
same,relative viability,[12]; first compound 0.08 µM,1.08
same,relative viability,[12]; first compound 0.253 µM,1.07
same,relative viability,[12]; first compound 0.8 µM,0.9
same,relative viability,[12]; first compound 2.53 µM,0.977
same,relative viability,[12]; first compound 8 µM,0.843
same,relative viability,[13]; first compound 0.08 µM,0.224
same,relative viability,[13]; first compound 0.253 µM,0.348
same,relative viability,[13]; first compound 0.8 µM,0.277
same,relative viability,[13]; first compound 2.53 µM,0.354
same,relative viability,[13]; first compound 8 µM,0.363
